Read-outs that look alike come from different tables or passages of the source. Numbered stars: 1 amine (or outer) side, 2 acyl side, 3 side chain; on linkers, the order of the positions; unused ones are H or OH. Bridge positions count the residues as written; N and C are the ends. Peptide text beside a SMILES is read from it. I, II: the chains in the order shown. OSi(nPr)2O = CCC[Si](CCC)(O[*:1])O[*:2]; X1 = C[Si](C)(O[*:1])O[*:2]
Assays:
Krebszellen = experiment: Effect of sugar silanes on cancer cells; format: cell-based
Hepatitis A-Viren = experiment: Antiviral effect; details: in particular as vesicles holding antisense constructs
Plasmozyten = experiment: Effect against plasmocytes
Lymphome = experiment: Effect on lymphomas
HIV-Vren = experiment: Antiviral effect; details: in particular as vesicles holding antisense constructs
Basalzellkarzinome = experiment: Effect on basal cell carcinomas
Osteosarkomen = experiment: Antimetastatic effect in rats; format: in vivo; details: in Ratten
Medulloblastome [1] = experiment: Effect on medulloblastomas
Entero-Viren [2] = experiment: Antiviral effect; details: in particular as vesicles holding antisense constructs
[3] = tested on: Kälber-Aortenendothelzellinie BKEz-7; experiment: Neutral red vitality test; format: cell-based; details: compared with the cytotoxicity test
Description: (§1) Als Marker für eine zytotoxische Wirkung wird bei Zellen der charakterisierten Kälber-Aortenendothelzellinie BKEz-7 die Hemmkonzentration ermittelt, bei der eine 50%-ige Hemmung der Zellproliferation erfolgt (im Vergleich zu Kontrollkulturen ohne Zusatz eines Zellinhibitors). Die resultierende Reduzierung der Zellzahl um 50% wird als IC 50 ausgedrückt. Die getesteten Silanverbindungen wurden als Suspensionen auf die Kulturen gegeben und 48 Stunden bei 37°C inkubiert. Zusätzlich erfolgten morphologische Kontrollen und Vitalitätsbestimmungen mittels dem Neutralrot-Test. Mit Ausnahme des Di(dodecanoyloxy)dimethylsilans standen alle Ergebnisse der morphologischen Untersuchungen in guter Übereinstimmung. […]

Osteosarkome = experiment: Effect on osteosarcomas
[4] = tested on: Kälber-Aortenendothelzellinie BKEz-7; experiment: tissue or blood; format: cell-based
Text: Prüfung auf zytotoxisches Potential an Kälber-Aortenendothelzellinie BKEz-7
as §1

Maus = experiment: Pharmacological observation in the mouse (central, vegetative and toxic effects, acute toxicity); format: in vivo
Summary of the method: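 Mice given single doses of 5·10^-4, 1·10^-3 and 5·10^-3 mol/kg body weight and observed individually. Recorded: orienting lethal dose (oLD), motor activity, reactivity, skin and rectal temperature, and pupil motility.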

Medulloblastome [5] = experiment: Effect on medulloblastomas; remark: listed apart in the source
Entero-Viren [6] = experiment: Antiviral effect; details: in particular as vesicles holding antisense constructs; remark: listed apart in the source
Plattenepithelkarzinome = experiment: Effect on squamous cell carcinomas

CCCCCCCCCCCC[Si](C)(C)O[C@@H]1O[C@H](COC(C)=O)[C@@H](OC(C)=O)[C@H](OC(C)=O)[C@H]1OC(C)=O [Silan 12, 1-O-Dimethyl(dodecyl)silyl-2,3,4,6-tetra-0-acetyl-ß-D-glucopyrasonid]
Wirkung auf Krebszellen (Krebszellen): zeigen ebenfalls eine Wirkung

CCC[Si](CCC)(OC(=O)[C@H](Cc1ccccc1)NC(=O)[C@H](Cc1ccccc1)NC(=O)[C@H](Cc1ccccc1)NC(=O)[C@H](Cc1ccccc1)NC(=O)[C@H](Cc1ccccc1)NC(=O)[C@H](Cc1ccccc1)NC(=O)[C@@H](N)Cc1ccccc1)OC(=O)[C@H](Cc1ccccc1)NC(=O)[C@H](Cc1ccccc1)NC(=O)[C@H](Cc1ccccc1)NC(=O)[C@H](Cc1ccccc1)NC(=O)[C@H](Cc1ccccc1)NC(=O)[C@H](Cc1ccccc1)NC(=O)[C@@H](N)Cc1ccccc1 [Dipropyl bis(heptaphenylalanyl)silylester] (I: H-FFFFFFF / II: H-FFFFFFF; linker I:C-II:C via OSi(nPr)2O)
Wirkung gegen Hepatitis A-Viren (Hepatitis A-Viren): zeigen eine Wirkung
Wirkung gegen Plasmozyten (Plasmozyten): zeigen eine Wirkung

CC/C=C\C/C=C\C/C=C\CCCCCCCC(=O)O[Si](OC(=O)CCCCCCC/C=C\C/C=C\C/C=C\CC)(C(C)C)C(C)C [Di(linolenoylooxy) diisopropylsilan]
Wirkung auf Lymphome (Lymphome): zeigen eine Wirkung
Wirkung gegen HIV-Vren (HIV-Vren): zeigen eine Wirkung

C[Si](C)(OC(=O)[C@H](Cc1ccccc1)NC(=O)[C@H](Cc1ccccc1)NC(=O)[C@H](Cc1ccccc1)NC(=O)[C@H](Cc1ccccc1)NC(=O)[C@@H](N)Cc1ccccc1)OC(=O)[C@H](Cc1ccccc1)NC(=O)[C@H](Cc1ccccc1)NC(=O)[C@H](Cc1ccccc1)NC(=O)[C@H](Cc1ccccc1)NC(=O)[C@@H](N)Cc1ccccc1 [Dimethyl bis(pentaphenylalanyl)silylester]
Wirkung auf Basalzellkarzinome (Basalzellkarzinome): zeigen eine Wirkung

CCCCCCCCC(=O)O[Si](OC(=O)CCCCCCCC)(C(C)C)C(C)C [Di(nonanoyloxy)diisopropylsilan]
antimetastasierende Wirkung bei Osteosarkomen (Osteosarkomen): zeigen eine antimetastasierende Wirkung

C[Si](C)(OC(=O)CNC(=O)CNC(=O)CNC(=O)CNC(=O)CNC(=O)CNC(=O)CNC(=O)CN)OC(=O)CNC(=O)CNC(=O)CNC(=O)CNC(=O)CNC(=O)CNC(=O)CNC(=O)CN [Dimethyl bis(octaglycyl)silylester] (I: H-GGGGGGGG / II: H-GGGGGGGG; linker I:C-II:C via X1)
Wirkung gegen Medulloblastome (Medulloblastome [1]): zeigen eine Wirkung
Wirkung gegen Entero-Viren (Entero-Viren [2]): zeigen eine Wirkung

CCCCCCCCCC(=O)O[Si](OC(=O)CCCCCCCCC)(C(C)C)C(C)C [Di(decanoyloxy)diisopropylsilan]
antimetastasierende Wirkung bei Osteosarkomen (Osteosarkomen): zeigen eine antimetastasierende Wirkung

C[Si](C)(OC(=O)[C@H](Cc1ccccc1)NC(=O)[C@H](Cc1ccccc1)NC(=O)[C@@H](N)Cc1ccccc1)OC(=O)[C@H](Cc1ccccc1)NC(=O)[C@H](Cc1ccccc1)NC(=O)[C@@H](N)Cc1ccccc1 [Dimethyl bis(triphenylalanyl)silylester]
Wirkung auf Basalzellkarzinome (Basalzellkarzinome): zeigen eine Wirkung

C[Si](C)(OC(=O)[C@H](Cc1ccccc1)NC(=O)[C@H](Cc1ccccc1)NC(=O)[C@H](Cc1ccccc1)NC(=O)[C@@H](N)Cc1ccccc1)OC(=O)[C@H](Cc1ccccc1)NC(=O)[C@H](Cc1ccccc1)NC(=O)[C@H](Cc1ccccc1)NC(=O)[C@@H](N)Cc1ccccc1 [Dimethyl bis(tetraphenylalanyl)slylester]
Wirkung auf Basalzellkarzinome (Basalzellkarzinome): zeigen eine Wirkung

CCCCC/C=C\C/C=C\CCCCCCCC(=O)O[Si](OC(=O)CCCCCCC/C=C\C/C=C\CCCCC)(C(C)C)C(C)C [Di(linoylooxy)diisopropylsilan]
Wirkung auf Lymphome (Lymphome): zeigen eine Wirkung
Wirkung gegen HIV-Vren (HIV-Vren): zeigen eine Wirkung

CCCCCCCCCCCC(=O)O[Si](C)(C)OC(=O)CCCCCCCCCCC [Di(dodecanoyloxy)dimethylsilan]
Vitalitätsbeeinflussungen im Neutralrot-Test [3]: geringere Vitalitätsbeeinflussungen als im Zytotoxizitätstest
Wirkung auf Osteosarkome (Osteosarkome): zeigen eine Wirkung
Bedenkliche Toxizität [4]: -
IC50 ([4]; suspensions, 48 Stunden bei 37°C): 129 µM
zentrale, vegetative und toxische Effekte (Verhaltensänderungen) (Maus; 1•10^-3 mol/kg): keine Verhaltensänderungen
zentrale, vegetative und toxische Effekte (Verhaltensänderungen) (Maus; 5•10^-3 mol/kg): Ataxie, Ploerektion, Griffstärkesenkung
zentrale, vegetative und toxische Effekte (Verhaltensänderungen) (Maus; 5•10^-4 mol/kg): keine Verhaltensänderungen

C[Si](C)(OC(=O)CNC(=O)CNC(=O)CNC(=O)CNC(=O)CN)OC(=O)CNC(=O)CNC(=O)CNC(=O)CNC(=O)CN [Dimethyl bis(pentaglycyl)silylester]
Wirkung gegen Medulloblastome (Medulloblastome [1]): zeigen eine Wirkung
Wirkung gegen Entero-Viren (Entero-Viren [2]): zeigen eine Wirkung

CCCCCCCCCCC(=O)O[Si](OC(=O)CCCCCCCCCC)(C(C)C)C(C)C [Di(undecanoyloxy)diisopropysilan]
antimetastasierende Wirkung bei Osteosarkomen (Osteosarkomen): zeigen eine antimetastasierende Wirkung

CCCCCCCC/C=C\CCCCCCCC(=O)O[Si](OC(=O)CCCCCCC/C=C\CCCCCCCC)(C(C)C)C(C)C
Wirkung gegen Medulloblastome (Medulloblastome [5]): zeigen eine Wirkung
Wirkung auf Lymphome (Lymphome): zeigen eine Wirkung
Wirkung gegen Entero-Viren (Entero-Viren [6]): zeigen eine Wirkung
Wirkung gegen HIV-Vren (HIV-Vren): zeigen eine Wirkung

CC[Si](CC)(OC(=O)[C@@H](NC(=O)[C@@H](NC(=O)[C@@H](N)C(C)C)C(C)C)C(C)C)OC(=O)[C@@H](NC(=O)[C@@H](NC(=O)[C@@H](N)C(C)C)C(C)C)C(C)C [Diethyl bis(trivalyl)silylester]
Wirkung auf Seminome (Seminome): zeigen eine Wirkung

CCCCCCCCCCCCCCCCCC[Si](C)(C)O[C@@H]1O[C@H](COC(C)=O)[C@@H](OC(C)=O)[C@H](OC(C)=O)[C@H]1OC(C)=O [1-O-Dimethyl(octadecyl)silyl-2,3,4,6-tetr'a-0-acteyl-ß-D-glucopyranosid]
Wirkung auf Krebszellen (Krebszellen): zeigen ebenfalls eine Wirkung

CCC[Si](CCC)(OC(=O)[C@H](C)NC(=O)[C@H](C)NC(=O)[C@H](C)NC(=O)[C@H](C)N)OC(=O)[C@H](C)NC(=O)[C@H](C)NC(=O)[C@H](C)NC(=O)[C@H](C)N [Dipropyl bis(tetraalanyl)silylester] (I: H-AAAA / II: H-AAAA; linker I:C-II:C via OSi(nPr)2O)
Wirkung gegen Plattenepithelkarzinome (Plattenepithelkarzinome): zeigen eine Wirkung
